MED and IC50 data for 17 molecules are collected here from ChEMBL document CHEMBL1130182, “C-terminal modifications of histidyl-N-benzylglycinamides to give improved inhibition of Ras farnesyltransferase, cellular activity, and anticancer activity in mice” (J Med Chem, 1997).

Square brackets hold non-standard residues; d marks the D form. Peptide text beside a SMILES is read from it. * marks the point of attachment. Cbz = O=C(OCc1ccccc1)*; Bn = c1ccc(C*)cc1

The species named for test [1] is Mus musculus. Description: Minimum effective dose required to detect unfarnesylated Ras in H-Ras-transformed NIH3T3 (H-Ras-F) cells injected into mice. The format is functional.
For test [2], the target named is Protein farnesyltransferase (Rattus norvegicus, UniProt Q02293+Q04631). Description: In vitro inhibition of rat farnesyltransferase. The format is protein-complex assay.

In test [1], `O=C(CN(Cc1ccc(OCc2ccccc2)cc1)C(=O)[C@H](Cc1c[nH]cn1)NC(=O)OCc1ccccc1)NCCOCc1ccccc1` showed an MED of 1 µM. This molecule also returned an IC50 in test [2] of 320 nM.

As for `O=C(CN(Cc1ccc(OCc2ccccc2)cc1)C(=O)[C@H](Cc1c[nH]cn1)NC(=O)OCc1ccccc1)NCCc1ccccc1`, in test [1], the MED is 0.1 µM. The same molecule registered an IC50 in test [2] of 62 nM.

`CCC(CNC(=O)CN(Cc1ccc(OCc2ccccc2)cc1)C(=O)[C@H](Cc1c[nH]cn1)NC(=O)OCc1ccccc1)c1ccccc1` (some centres not stated) gave an MED in test [1] of 0.05 µM. Inhibition in test [2] was half-maximal at 5 nM (IC50).

Molecule `CCC(CC)(CNC(=O)CN(Cc1ccc(OCc2ccccc2)cc1)C(=O)[C@H](Cc1c[nH]cn1)NC(=O)OCc1ccccc1)c1ccccc1` came in with an MED in test [1] of 0.2 µM.

As for `C[C@@H](CNC(=O)CN(Cc1ccc(OCc2ccccc2)cc1)C(=O)[C@H](Cc1c[nH]cn1)NC(=O)OCc1ccccc1)c1ccccc1`, the MED in test [1] was determined as 0.2 µM. The molecule also displayed an IC50 in test [2] of 16 nM.

For the molecule `C[C@H](CNC(=O)CN(Cc1ccc(OCc2ccccc2)cc1)C(=O)[C@H](Cc1c[nH]cn1)NC(=O)OCc1ccccc1)c1ccccc1`, the MED in test [1] worked out at 0.05 µM. This molecule also registered an IC50 in test [2] of 5 nM.

In test [1], `N#CC(CNC(=O)CN(Cc1ccc(OCc2ccccc2)cc1)C(=O)[C@H](Cc1c[nH]cn1)NC(=O)OCc1ccccc1)c1ccccc1` (some centres not stated) returned an MED of 0.05 µM. For the same molecule, in test [2], the midpoint of inhibition, the IC50, lay at 2 nM.

With `C[C@@H](Cc1ccccc1)NC(=O)CN(Cc1ccc(OCc2ccccc2)cc1)C(=O)[C@H](Cc1c[nH]cn1)NC(=O)OCc1ccccc1`, the MED in test [1] amounted to 0.2 µM. It took 41 nM to reach half-maximal inhibition in test [2] (IC50).

The molecule `CC(CNC(=O)CN(Cc1ccc(OCc2ccccc2)cc1)C(=O)[C@H](Cc1c[nH]cn1)NC(=O)OCc1ccccc1)c1ccccc1` (some centres not stated) came in with an MED in test [1] of 0.05 µM. The IC50 in test [2] came to 8 nM.

As to `C[C@H](Cc1ccccc1)NC(=O)CN(Cc1ccc(OCc2ccccc2)cc1)C(=O)[C@H](Cc1c[nH]cn1)NC(=O)OCc1ccccc1`, the MED in test [1] worked out at 0.05 µM. Half-maximal inhibition in test [2] (IC50) required 3 nM.

On to `CCCC(CNC(=O)CN(Cc1ccc(OCc2ccccc2)cc1)C(=O)[C@H](Cc1c[nH]cn1)NC(=O)OCc1ccccc1)c1ccccc1` (some centres not stated), for which the MED in test [1] is 0.2 µM. The same molecule showed a concentration for half-maximal inhibition (IC50) in test [2] of 25 nM.

In test [1], `O=C(CN(Cc1ccc(OCc2ccccc2)cc1)C(=O)[C@H](Cc1c[nH]cn1)NC(=O)OCc1ccccc1)NCC1(c2ccccc2)CCCC1` showed an MED of 0.2 µM. This molecule also yielded an IC50 in test [2] of 17 nM.

`O=C(CN(Cc1ccc(OCc2ccccc2)cc1)C(=O)[C@H](Cc1c[nH]cn1)NC(=O)OCc1ccccc1)NCC1(c2ccccc2)CCC1`: in test [1], the MED was determined as 0.02 µM. Also, the IC50 in test [2] came to 6 nM.

As for `O=C(CN(Cc1ccc(OCc2ccccc2)cc1)C(=O)[C@H](Cc1c[nH]cn1)NC(=O)OCc1ccccc1)NCC1(c2ccccc2)CC1`, in test [1], the MED amounted to 0.02 µM. Besides, the IC50 in test [2] amounted to 7 nM.

`CC(C)(Cc1ccccc1)NC(=O)CN(Cc1ccc(OCc2ccccc2)cc1)C(=O)[C@H](Cc1c[nH]cn1)NC(=O)OCc1ccccc1` displayed an MED in test [1] of 1 µM. The same molecule gave an IC50 in test [2] of 270 nM.

`CC(C)(CNC(=O)CN(Cc1ccc(OCc2ccccc2)cc1)C(=O)[C@H](Cc1c[nH]cn1)NC(=O)OCc1ccccc1)c1ccccc1` came in with an MED in test [1] of 0.05 µM. Further, in test [2], the IC50 is 4 nM.

With `C[C@@H](NC(=O)[C@H](Cc1c[nH]c2ccccc12)NC(=O)[C@H](COCc1ccccc1)NC(=O)[C@H](Cc1ccc(OCc2ccccc2)cc1)NC(=O)[C@H](Cc1c[nH]cn1)NC(=O)OCc1ccccc1)C(N)=O` (Cbz-HY(Bn)S(Bn)W[dA]-NH2), the MED in test [1] is over 100 µM.
